# Measured values from patent publication US12222275B2, “Methods and systems for particle characterisation by imaging free-floating particle movement in liquid enviornment” (VRIJE UNIVERSITEIT BRUSSEL, priority 2019, dated 2025).
# “Also recorded” adds a separate entry of the source.
# How the values were obtained:
# [1] = system: C. albicans DSY294; assay: Optical nanomotion detection (ONMD) of free yeast cells, antifungal susceptibility test; assay type: cell-based, Candida albicans
# Text: (§1) To track single cells, in the present example a cross-correlation image registration algorithm was used. The method was documented to efficiently track subtle modifications of keratin networks in living cells and displacements of myoblasts. The algorithm is based on the initial estimation of the cross-correlation peak between the first and every subsequent frame. […] Our program calculates the cell displacement for each frame and saves the trajectories of tracked cells as well as the root mean square of the displacement to an MS Excel file.
# (§2) The cellular x-y movements were monitored by recording 12 s long movies (1000 frames) taken at a magnification of 400× (FIG. 13). By periodically recording these movies, temporal behavior of the cells was characterized as a function of different chemical and physical stimuli (FIG. 13A-B). To track the cellular movements of single cells, we used a cross-correlation image registration algorithm. The algorithm is based on the initial estimation of the cross-correlation peak between the first and every subsequent frame. It provides a numerical value for the image translation with a sub-pixel (sub-μm) resolution. The cell displacement for each frame, the trajectories of tracked cells (FIG. 13C) as well as the root mean square of the total displacement (FIG. 13F) were calculated. Single cell nanomotions were characterized by plotting the distribution of the displacements per frame as a violin plot (FIG. 13D). The movements of the set of 20 cells were characterized by plotting grouped cellular displacements per frame as violin plots and the total displacements of 20 cells over 1000 frames as box-and-whisker plots (FIG. 13E).
# (§3) Ten μl of each yeast cell culture was dispensed in one of the microwells, using a 4 Well FulTrac micro-Insert (ibidi, Germany) in an imaging micro-dish (Ibidi, Germany). The yeast cells were allowed to sediment for a period of 10 min before starting the measurement. The movement of cells was observed by taking movies of 1000 frames with a framerate of 84 fps using an EMCCD camera (Andor iXon, Oxford Instruments) using a Nikon TE-2000 microscope with a 40× objective. The Petri dish was kept at 30° C. using a microscope stage top incubator (ibidi, Germany).
# (§4) The effect of ethanol on the viability of the cells was compared with cells grown in YPD medium as a reference. Therefore, first cell nanomotion videos were recorded and next (after approximately 1 min), 200 μl of ethanol (70% v/v) was added to the top chamber of the 4 micro-Insert wells. Videos were recorded every hour during a period of 5 h. Caspofungin, amphotericin B and fluconazole were used as antifungals in the antifungal susceptibility testing, i.e. to assess their effect on cell viability. Before starting the treatment with the antifungal, reference (no treatment) videos were recorded of yeast cells in YPD medium (time=0 h). Then (at time=1 min) 200 μl of a certain concentration of antifungal was added to the chamber (200 μl) above the 4 microwells. Measurements were taken every hour during a period of 5 h. As abiotic reference particles, silica microbeads (monodisperse silica standard, Whitehouse Scientific) with a diameter of 3 μm were used. The beads were dissolved in YPD medium and the measurements were performed at 30° C.
# (§5) The optical nanomotion detection algorithm calculates the cell displacement for each frame and saves the trajectories of tracked cells as well as the root mean square of the displacement to a MS Excel file. The main part of the program is based on the algorithm of Guizar-Sicairos et al.[14], ported from Matlab to Python in the open source image processing library sci-kit image. The Python package nd2 reader (Verweij R, Online: http://www.lighthacking.nl/nd2reader/) was employed to import the videos in the ND2 Nikon format.
# [2] = system: S. cerevisiae BY4742; assay: Optical nanomotion detection (ONMD) of free yeast cells; assay type: cell-based, Saccharomyces cerevisiae
# Text: as §1, §2, §3, §4, §5
# [3] = system: S. cerevisiae; conditions: cited from earlier work
# [4] = system: osteoblasts; conditions: AFM-cantilever method; cited from earlier work
# [5] = system: C. albicans DSY1024 (hypersusceptible, mutant for efflux systems); assay: Optical nanomotion detection (ONMD) of free yeast cells, antifungal susceptibility test; assay type: cell-based, Candida albicans
# Text: as §1, §2, §3, §4, §5
# [6] = system: C. albicans DSY4614 (candin-resistant clinical strain); assay: as above; assay type: cell-based, Candida albicans
# Text: as §1, §2, §3, §4, §5
# [7] = system: C. glabrata DSY562; assay: Optical nanomotion detection (ONMD) of free yeast cells; assay type: cell-based, Candida glabrata
# Text: as §1, §2
# (§6) Ten μl of each yeast cell culture was dispensed in one of the microwells, using a 4 Well FulTrac micro-Insert (ibidi, Germany) in an imaging micro-dish (Ibidi, Germany). The yeast cells were allowed to sediment for a period of 10 min before starting the measurement. […]
# (§7) The effect of ethanol on the viability of the cells was compared with cells grown in YPD medium as a reference. Therefore, first cell nanomotion videos were recorded and next (after approximately 1 min), 200 μl of ethanol (70% v/v) was added to the top chamber of the 4 micro-Insert wells. Videos were recorded every hour during a period of 5 h. […] Before starting the treatment with the antifungal, reference (no treatment) videos were recorded of yeast cells in YPD medium (time=0 h). […]
# as §5, with “The main part of the program is based on the algorithm of Guizar-Sicairos et al.[14], ported from Matlab to Python in the open source image processing library sci-kit image.” left out
# [8] = system: C. lusitaniae DSY4590 (resistant clinical strain); assay: as above; assay type: cell-based, Candida lusitaniae; conditions: caspofungin 10 μg/ml; FIG. 4b left panel
# Text: as §1, §2, §6, §7
# as §5, with “The main part of the program is based on the algorithm of Guizar-Sicairos et al.[14], ported from Matlab to Python in the open source image processing library sci-kit image.” left out
# [9] = system: C. lusitaniae DSY4606; assay: as above; assay type: cell-based, Candida lusitaniae
# Text: as §1, §2, §6, §7
# as §5, with “The main part of the program is based on the algorithm of Guizar-Sicairos et al.[14], ported from Matlab to Python in the open source image processing library sci-kit image.” left out
# [10] = system: S. cerevisiae; conditions: cited from earlier work; remark: listed apart in the source
# [11] = system: C. albicans CAF2-1 wild-type strain; assay: Optical nanomotion detection (ONMD), amphotericin B dose-response; assay type: cell-based, Candida albicans
# Text: as §1, §2, §3
# as §4, with “As abiotic reference particles, silica microbeads (monodisperse silica standard, Whitehouse Scientific) with a diameter of 3 μm were used. The beads were dissolved in YPD medium and the measurements were performed at 30° C.” left out
# as §5, with “The main part of the program is based on the algorithm of Guizar-Sicairos et al.[14], ported from Matlab to Python in the open source image processing library sci-kit image.” left out
# [12] = system: C. albicans; conditions: cited from earlier work
# [13] = system: Candida lusitaniae DSY4590; conditions: FKS1 S638Y, erg4; ref [7] unpublished; cited from earlier work
# [14] = caspofungin 10 μg/ml, surface-attached cells, FIG. 6, 18F-K
# [15] = caspofungin treated, pooled from 1-5-hour treatments, FIG. 7d
# [16] = ethanol 70%, ten minutes after addition
# [17] = ethanol 70% v/v, ten minutes after addition and diffusive mixing, t-test
# [18] = ethanol 70%, Wilcoxon test, FIG. 15
compound,measurement,setting,value
OC(Cn1cncn1)(Cn1cncn1)c1ccc(F)cc1F [fluconazole],time of treatment after which a significant decrease in (mean) total displacement was detected,"[1]; fluconazole 400 μg/ml, FIG. 2d, 16C",1 h
same,effect on total displacement after 1 h of treatment,"[2]; fluconazole 400 μg/ml, 1 h, FIG. 5b",no effect
same,time of treatment after which a significant decrease in total displacement was obvious,"[2]; fluconazole 400 μg/ml, FIG. 5b",5 h
same,fluconazole MIC value,[3],1 to 8 µg/mL
cytochalasin,cellular movement after depolymerizing the actin cytoskeleton,[4],reduced cellular movement
CC[C@H](C)C[C@H](C)CCCCCCCCC(=O)N[C@H]1C[C@@H](O)[C@@H](NCCN)NC(=O)[C@@H]2[C@@H](O)CCN2C(=O)[C@H]([C@H](O)CCN)NC(=O)[C@H]([C@H](O)[C@@H](O)c2ccc(O)cc2)NC(=O)[C@@H]2C[C@@H](O)CN2C(=O)[C@H]([C@@H](C)O)NC1=O [caspofungin],killing of cells judged by nanomotion,"[5]; caspofungin 10 μg/ml, FIG. 2f, 16D",did kill
same,"total displacement of cells attached to concanavalin A coated glass, treated versus untreated",[5]; [14],no significant decrease of the total displacement; also recorded: no significant difference
same,additional fcrit of treated cells,[5]; [15],around 2 Hz
same,"critical frequency (fcrit) distribution of treated cells, extent of broadening",[5]; [15],most extended
same,"total displacement of cells attached to concanavalin A coated glass, treated versus untreated",[1]; [14],no significant decrease of the total displacement; also recorded: no significant difference
same,time of treatment after which a significant decrease in (mean) total displacement was detected,"[1]; caspofungin 100 μg/ml, FIG. 2d, 16B",1 h
same,critical frequency (fcrit) distribution of treated cells,[1]; [15],broadening of their fcrit
same,effect on nanomotion,"[6]; caspofungin 10 μg/ml, FIG. 2e, 16E",did not affect the nanomotion
same,"total displacement of cells attached to concanavalin A coated glass, treated versus untreated","[6]; caspofungin 10 μg/ml, surface-attached cells, FIG. 6",no significant decrease of the total displacement
same,critical frequency (fcrit) distribution of treated cells,[6]; [15],broadening of their fcrit
same,time of treatment after which the cells were dead (nanomotion AFST),"[7]; caspofungin, FIG. 4a",2 h
same,effect of treatment on nanomotion,[8],not affected
same,killing of cells judged by nanomotion,"[9]; caspofungin 10 μg/ml, FIG. 4b right panel",killed
same,time of treatment after which a significant decrease of the total displacement was observed,"[2]; caspofungin 10 μg/ml, FIG. 5a",3 h
CCO [ethanol],time of treatment after which a significant decrease of the total displacement was measured,"[1]; ethanol 70% v/v, t-test, FIG. 2c",60 min
same,displacements in the set of 20 cells,[1]; [16],reduction of the displacements
same,change of total displacement,[7]; [17],significant (t-test) decrease
same,time after which a significant decrease of the total displacement was observed,[7]; [18],60 min
same,displacements in the set of 20 cells,[7]; [16],reduction of the displacements
same,change of total displacement,[9]; [17],significant (t-test) decrease
same,displacements in the set of 20 cells,[9]; [16],reduction of the displacements
same,change of total displacement,[2]; [17],significant (t-test) decrease
same,time after which a significant decrease of the total displacement was observed,[2]; [18],60 min
same,displacements in the set of 20 cells,[2]; [16],reduction of the displacements
same,"higher ethanol concentrations that impair the cell membrane integrity, eventually apoptotic cell death",[10],> 10%
same,moderate ethanol concentrations that affect the growth rate,[10],5-7%
C[C@@H]1[C@H](O)[C@@H](C)/C=C/C=C/C=C/C=C/C=C/C=C/C=C/[C@H](O[C@@H]2O[C@H](C)[C@@H](O)[C@H](N)[C@@H]2O)C[C@@H]2O[C@](O)(C[C@@H](O)C[C@@H](O)[C@H](O)CC[C@@H](O)C[C@@H](O)CC(=O)O[C@H]1C)C[C@H](O)[C@H]2C(=O)O [amphotericin B],"concentration at which the cellular nanomotion is increased, as multiple of MIC",[1],around 10 times the MIC
same,concentration at which the total displacement shows an increase,"[1]; after 1 h treatment, FIG. 16F",10 µg/mL
same,increase of total displacement after 2 h treatment,"[1]; after 2 h treatment, FIG. 16G",the increase is reduced
same,nanomotion signal after 1 h treatment,"[1]; amphotericin B 100 μg/ml, 1 h, FIG. 2d",decreased to values close to those recorded on dead cells
same,time of treatment after which a significant decrease in the mean total displacement was detected,"[1]; amphotericin B 100 μg/ml, t-test, FIG. 2d",1 h
same,time of treatment after which a significant decrease in cellular displacements and total displacement was detected,"[1]; amphotericin B 500 μg/ml, FIG. 16A, 20A",1 h
same,"cellular nanomotion after 1 h treatment, whole set of 20 cells","[1]; amphotericin B at a high concentration (500 μg/ml), 1 h, FIG. 20A",decreased to values close to those recorded on dead cells
same,"concentration at which the cellular nanomotion is increased, as multiple of MIC",[11],around 10 times the MIC
same,concentration at which the mean total displacement increased,"[11]; after 1 h treatment, FIG. 2g",10 µg/mL
same,concentration at which the mean total displacement increased,"[11]; after 2 h treatment, FIG. 2h",4 µg/mL
same,mean total displacement at higher drug concentrations,[11]; concentrations above 10 μg/ml (1 h) or 4 μg/ml (2 h),decreased
same,MIC value detected by ONMD (lowest concentration where a change in nanomotion can be observed),"[11]; total displacement of 20 cells, 'this strain'",1 to 4 µg/mL
same,"reported amphotericin B MIC value, classical microtitre plate method","[12]; 'this strain' (CAF2-1 or DSY294, not clear)",0.3 µg/mL
same,reported amphotericin B MIC value,[12]; C. albicans DSY strains,0.5 µg/mL
same,susceptibility of the strain (characteristics),[13],"FKS1, S638Y, erg4 Resistant"
